{
  "source": "patent US20210300913A1",
  "about": "“DEUTERATED DERIVATIVES OF LANIFIBRANOR” (lNVENTlVA, priority 2018, published 2021)",
  "assay_type_in_all_cases": "cell-based",
  "key": {"[1]": {"biological_target": "T1, human receptor PPARα-Gal4 (Homo sapiens, UniProt Q07869)", "T1 sequence (Q07869 200-468 limits assumed)": "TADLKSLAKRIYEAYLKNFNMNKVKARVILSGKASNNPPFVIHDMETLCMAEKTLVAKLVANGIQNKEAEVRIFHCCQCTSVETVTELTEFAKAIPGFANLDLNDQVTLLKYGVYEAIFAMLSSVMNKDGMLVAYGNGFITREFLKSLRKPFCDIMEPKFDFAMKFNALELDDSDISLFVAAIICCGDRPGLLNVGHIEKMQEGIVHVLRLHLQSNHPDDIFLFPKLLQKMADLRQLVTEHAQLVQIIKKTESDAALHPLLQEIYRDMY", "assay": "PPAR-Gal4 transactivation test in transfected Cos-7 cells (luciferase reporter), PPARα", "conditions": "for EC50: Cos-7 cells, overnight incubation; for Human receptor PPARα Top: induction as percentage of reference fenofibric acid at 10^-5 M (=100%)", "procedure": "(§1) A transactivation test was used as the primary screening test. Cos-7 cells were transfected with a plasmid expressing a chimera of a murine or human receptor PPAR-Gal4 (receptor PPARα-Gal4 or PPARδ-Gal4 or PPARγ-Gal4) and of a reporter plasmid 5Gal4pGL3 TK Luc. The transfections were carried out using a chemical agent (Jet PEI). Transfected cells were distributed into 384 well plates and allowed to stand for 24 hours. At 24 hours the culture medium was changed. The products to be tested were added (final concentration between 10^−4 and 3.10^−10 M) to the culture medium. After overnight incubation, luciferase expression was measured after addition of “SteadyGlo” according to the manufacturer's instructions (Promega).\n(§2) Fenofibric acid at 10^−5 M (PPARα agonist), GW501516 at 10^−8 M (PPARδ agonist) and rosiglitazone at 10^−6 M (PPARγ agonist) were used as references.\n(§3) The results are expressed as the induction rate (number of times) compared to the basal level as a percentage of activity of the adequate reference (reference=100%). Effect-concentration curves and EC50 were calculated using Assay Explorer (MDL) software."}, "[2]": {"biological_target": "T2, human receptor PPARδ-Gal4 (Homo sapiens, UniProt Q03181)", "T2 sequence (Q03181 171-441 limits assumed)": "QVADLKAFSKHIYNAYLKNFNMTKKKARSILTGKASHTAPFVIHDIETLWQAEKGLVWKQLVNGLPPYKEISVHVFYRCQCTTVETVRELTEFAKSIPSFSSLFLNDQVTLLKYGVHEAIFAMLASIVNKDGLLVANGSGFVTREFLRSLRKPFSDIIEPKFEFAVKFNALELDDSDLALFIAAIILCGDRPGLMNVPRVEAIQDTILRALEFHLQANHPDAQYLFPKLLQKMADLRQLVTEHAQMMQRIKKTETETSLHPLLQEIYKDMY", "assay": "PPAR-Gal4 transactivation test in transfected Cos-7 cells (luciferase reporter), PPARδ", "conditions": "for EC50: Cos-7 cells, overnight incubation; for Human receptor PPARδ Top: induction as percentage of reference GW501516 at 10^-8 M (=100%)", "procedure": "as §1, §2, §3"}, "[3]": {"biological_target": "T3, human receptor PPARγ-Gal4 (Homo sapiens, UniProt P37231)", "T3 sequence (P37231 238-505 limits assumed)": "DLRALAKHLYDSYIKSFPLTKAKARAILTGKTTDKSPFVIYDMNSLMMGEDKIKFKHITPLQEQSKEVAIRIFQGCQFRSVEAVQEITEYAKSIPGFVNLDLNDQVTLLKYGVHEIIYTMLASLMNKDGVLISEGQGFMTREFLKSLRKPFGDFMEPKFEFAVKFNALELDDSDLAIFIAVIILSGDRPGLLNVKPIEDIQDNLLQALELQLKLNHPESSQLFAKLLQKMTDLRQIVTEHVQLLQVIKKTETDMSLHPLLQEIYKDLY", "assay": "PPAR-Gal4 transactivation test in transfected Cos-7 cells (luciferase reporter), PPARγ", "conditions": "for EC50: Cos-7 cells, overnight incubation; for Human receptor PPARγ Top: induction as percentage of reference rosiglitazone at 10^-6 M (=100%)", "procedure": "as §1, §2, §3"}},
  "data": [
    {"smiles": "[2H]C([2H])(C(=O)O)C([2H])([2H])C([2H])([2H])c1cc2cc(Cl)ccc2n1S(=O)(=O)c1ccc2ncsc2c1", "note": "[Example 2, 4-[1-(1,3-Benzothiazol-6-ylsulfonyl)-5-chloro-indol-2-yl]-2,2,3,3,4,4-hexadeuteriobutanoic acid]", "values": [
      {"measurement": "EC50", "setting": "[1]", "result": 2280, "unit": "nM"},
      {"measurement": "Human receptor PPARα Top", "setting": "[1]", "result": 62, "unit": "%"},
      {"measurement": "EC50", "setting": "[2]", "result": 1180, "unit": "nM"},
      {"measurement": "Human receptor PPARδ Top", "setting": "[2]", "result": 80, "unit": "%"},
      {"measurement": "EC50", "setting": "[3]", "result": 136, "unit": "nM"},
      {"measurement": "Human receptor PPARγ Top", "setting": "[3]", "result": 50, "unit": "%"}
    ]},
    {"smiles": "[2H]c1nc2ccc(S(=O)(=O)n3c(CCCC(=O)O)cc4cc(Cl)ccc43)cc2s1", "note": "[Example 1]", "values": [
      {"measurement": "Human receptor PPARα Top", "setting": "[1]", "result": 67, "unit": "%"},
      {"measurement": "Human receptor PPARδ Top", "setting": "[2]", "result": 80, "unit": "%"},
      {"measurement": "Human receptor PPARγ Top", "setting": "[3]", "result": 53, "unit": "%"}
    ]},
    {"smiles": "O=C(O)CCCc1cc2cc(Cl)ccc2n1S(=O)(=O)c1ccc2ncsc2c1", "note": "[Example 1]", "values": [
      {"measurement": "EC50", "setting": "[1]", "result": 2320, "unit": "nM"},
      {"measurement": "EC50", "setting": "[2]", "result": 952, "unit": "nM"},
      {"measurement": "EC50", "setting": "[3]", "result": 85, "unit": "nM"}
    ]}
  ]
}
